In patent US6525001B1, “Substituted pyrimidine and pyridine herbicides” (Mid-American Commercialization Corporation, priority 1997, dated 2003):

How the values were obtained:
Type in all cases: in vivo
[1] = test system: bamyardgrass (Echinochloa crus-galli); test: Test B flood test; design: key: 0 is no effect; 10 is complete control
Summary of the method: (§1)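 Each value is a visual injury score relative to controls, with 10 meaning complete control and 0 no effect. Evaluation took place twelve to sixteen days after the 2-leaf-stage plants were treated and kept in the greenhouse.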

[2] = test system: rice (Oryza sativa); test: Test B flood test; design: key: 0 is no effect; 10 is complete control
Summary of the method: as §1

[3] = test system: smallflower flatsedge (Cyperus difformis); test: Test B flood test; design: key: 0 is no effect; 10 is complete control
Summary of the method: as §1

[4] = test system: duck salad (Heteranthera limosa); test: Test B flood test; design: key: 0 is no effect; 10 is complete control
Summary of the method: as §1

[5] = test system: morningglory (Ipomoea spp.); test: Test A pre-/postemergence; conditions: 0 to 10 scale
Experimental: Seeds of barnyardgrass (Echinochloa crus-galli), crabgrass (Digitaria spp.), morningglory (Ipomoea spp.), and velvetleaf (Abutilon theophrasti) were planted into a sandy loam soil and treated preemergence by soil drench with test chemicals formulated in a non-phytotoxic solvent mixture which includes a surfactant. At the same time, these crop and weed species were also treated postemergence sprayed to runoff, with test chemicals formulated in the same manner. Plants ranged in height from two to eighteen cm and were in the one to two leaf stage for the postemergence treatment. Treated plants and untreated controls were maintained in a greenhouse for approximately eleven days, after which all treated plants were compared to untreated controls and visually evaluated for injury. Plant response ratings, summarized in Table A, are based on a 0 to 10 scale where 0 is no effect and 10 is complete control. A dash (−) response means no test results.

[6] = test system: purple nutsedge (Cyperus rotundus); test: Test B pre-/postemergence; design: key: 0 is no effect; 10 is complete control
Summary of the method: (§2)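 Response scores run from 0, meaning no effect, to 10, meaning complete control, assigned by eye relative to controls twelve to sixteen days after spraying. Treatment was both preemergence on planted seed and postemergence on plants at the 1- to 4-leaf stage.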

[7] = test system: wild oat (Avena fatua); test: Test B pre-/postemergence; design: key: 0 is no effect; 10 is complete control
Summary of the method: as §2

[8] = test system: field bindweed (Convolvulus arvensis); test: Test C; design: key: 0 was no effect; 100 was complete control
[9] = test system: surinam grass (Brachiaria decumbens); test: Test C
[10] = test system: redroot pigweed (Amaranthus retroflexus); test: Test C; design: key: 0 was no effect; 100 was complete control
[11] = test system: soybean (Glycine max); test: Test C
[12] = test system: fall panicum (Panicum dichotomiflorum); test: Test C; design: key: 0 was no effect; 100 was complete control
[13] = test system: common ragweed (Ambrosia elatior); test: Test C
[14] = test system: cotton (Gossypium hirsutum); test: Test C
[15] = test system: wild poinsettia (Euphorbia heterophylla); test: Test C; design: key: 0 was no effect; 100 was complete control
[16] = test system: lambsquarters (Chenopodium album); test: Test C; design: key: 0 was no effect; 100 was complete control
[17] = test system: eastern black nightshade (Solanum ptycanthum); test: Test C; design: key: 0 was no effect; 100 was complete control
[18] = test system: giant foxtail (Setaria faberii); test: Test C; design: key: 0 was no effect; 100 was complete control
[19] = Rate 62 g/ha, Postemergence (flood test)
[20] = Rate 125 g/ha, Postemergence, flood test
[21] = Rate 250 g/ha, Postemergence (flood test species)
[22] = Rate 500 g/ha, Postemergence (flood test species)

Cc1cnc(-c2ccc(C(F)(F)F)cc2)nc1Cn1cc(I)cn1 [Compound 12]
5: Plant response rating, Wild oats ([7]; Rate 500 g/ha, Postemergence)
2: Plant response rating, Barnyardgrass [1, 19] | Plant response rating, Barnyardgrass [1, 20] | Plant response rating, Rice [2, 20] | Plant response rating, Ducksalad [4, 22] | Plant response rating, Morningglory ([5]; postemergence SPRAYED TO RUNOFF, Rate 1000 g/ha) | Wild oats plant response rating ([7]; Rate 125 g/ha, Preemergence)
8: Plant response rating, S. Flatsedge [3, 21] | Plant response rating, S. Flatsedge [3, 22]
3: Plant response rating, Barnyardgrass [1, 21] | Plant response rating, Barnyardgrass [1, 22] | Plant response rating, Rice [2, 21] | Plant response rating, Rice [2, 22] | Plant response rating, Morningglory ([5]; PRE SOIL DRENCH, Rate 2000 g/ha) | Plant response rating, Wild oats ([7]; Rate 62 g/ha, Postemergence) | Plant response rating, Wild oats ([7]; Rate 125 g/ha, Postemergence)
0: Plant response rating, Ducksalad [4, 19] | Plant response rating, Nutsedge ([6]; Rate 62 g/ha, Postemergence) | Nutsedge plant response rating ([6]; Rate 62 g/ha, Preemergence) | Plant response rating, Nutsedge ([6]; Rate 125 g/ha, Postemergence) | Nutsedge plant response rating ([6]; Rate 125 g/ha, Preemergence) | Plant response rating, Nutsedge ([6]; Rate 250 g/ha, Postemergence) | Plant response rating, Nutsedge ([6]; Rate 250 g/ha, Preemergence) | Plant response rating, Nutsedge ([6]; Rate 500 g/ha, Postemergence) | Plant response rating, Nutsedge ([6]; Rate 500 g/ha, Preemergence)
1: Plant response rating, Rice [2, 19] | Plant response rating, Ducksalad [4, 20] | Plant response rating, Ducksalad [4, 21] | Wild oats plant response rating ([7]; Rate 62 g/ha, Preemergence)
6: Plant response rating, S. Flatsedge [3, 20]
4: Plant response rating, S. Flatsedge [3, 19] | Plant response rating, Wild oats ([7]; Rate 250 g/ha, Postemergence) | Plant response rating, Wild oats ([7]; Rate 250 g/ha, Preemergence) | Plant response rating, Wild oats ([7]; Rate 500 g/ha, Preemergence)

Cc1cnc(-c2ccc(C(F)(F)F)cc2)nc1Cn1ccc(C(F)(F)F)n1 [compound 9]
25: Plant response rating, Soybean ([11]; PREEMERGENCE, Rate 140 g/ha)
5: Plant response rating, Surinam grass ([9]; POSTEMERGENCE, Rate 35 g/ha) | Plant response rating, Surinam grass ([9]; POSTEMERGENCE, Rate 70 g/ha) | Plant response rating, Barnyardgrass [1, 19] | Plant response rating, Barnyardgrass [1, 20] | Plant response rating, Rice [2, 19] | Plant response rating, Fall panicum ([12]; POSTEMERGENCE, Rate 35 g/ha) | Wild oats plant response rating ([7]; Rate 62 g/ha, Preemergence)
20: Plant response rating, Surinam grass ([9]; POSTEMERGENCE, Rate 140 g/ha) | Plant response rating, Soybean ([11]; PREEMERGENCE, Rate 35 g/ha) | Plant response rating, Soybean ([11]; PREEMERGENCE, Rate 70 g/ha) | Plant response rating, Fall panicum ([12]; POSTEMERGENCE, Rate 70 g/ha)
1: Plant response rating, Nutsedge ([6]; Rate 125 g/ha, Postemergence)
7: Plant response rating, Barnyardgrass [1, 21] | Plant response rating, Rice [2, 21] | Plant response rating, Ducksalad [4, 21]
80: Plant response rating, Field bindweed ([8]; POSTEMERGENCE, Rate 140 g/ha) | Plant response rating, Surinam grass ([9]; PREEMERGENCE, Rate 70 g/ha) | Plant response rating, Common ragweed ([13]; PREEMERGENCE, Rate 35 g/ha) | Plant response rating, Cotton ([14]; POSTEMERGENCE, Rate 70 g/ha) | Plant response rating, Lambsquarters ([16]; POSTEMERGENCE, Rate 70 g/ha)
9: Plant response rating, S. Flatsedge [3, 20] | Plant response rating, S. Flatsedge [3, 21] | Plant response rating, S. Flatsedge [3, 22] | Plant response rating, Wild oats ([7]; Rate 250 g/ha, Preemergence) | Plant response rating, Wild oats ([7]; Rate 500 g/ha, Preemergence)
35: Plant response rating, Surinam grass ([9]; PREEMERGENCE, Rate 35 g/ha) | Plant response rating, Cotton ([14]; PREEMERGENCE, Rate 70 g/ha)
6: Plant response rating, Rice [2, 20] | Plant response rating, Ducksalad [4, 20] | Plant response rating, Ducksalad [4, 22] | Plant response rating, Wild oats ([7]; Rate 250 g/ha, Postemergence)
40: Plant response rating, Soybean ([11]; POSTEMERGENCE, Rate 35 g/ha)
50: Plant response rating, Field bindweed ([8]; PREEMERGENCE, Rate 35 g/ha) | Plant response rating, Soybean ([11]; POSTEMERGENCE, Rate 70 g/ha) | Plant response rating, Soybean ([11]; POSTEMERGENCE, Rate 140 g/ha) | Plant response rating, Cotton ([14]; PREEMERGENCE, Rate 140 g/ha) | Plant response rating, Wild poinsettia ([15]; PREEMERGENCE, Rate 70 g/ha) | Plant response rating, Wild poinsettia ([15]; PREEMERGENCE, Rate 140 g/ha)
70: Plant response rating, Field bindweed ([8]; POSTEMERGENCE, Rate 70 g/ha) | Plant response rating, Redroot pigweed ([10]; POSTEMERGENCE, Rate 70 g/ha) | Plant response rating, Cotton ([14]; POSTEMERGENCE, Rate 35 g/ha)
75: Plant response rating, Common ragweed ([13]; PREEMERGENCE, Rate 140 g/ha) | Plant response rating, Lambsquarters ([16]; POSTEMERGENCE, Rate 35 g/ha)
60: Plant response rating, Field bindweed ([8]; POSTEMERGENCE, Rate 35 g/ha) | Plant response rating, Redroot pigweed ([10]; POSTEMERGENCE, Rate 35 g/ha)
100: Plant response rating, Field bindweed ([8]; PREEMERGENCE, Rate 70 g/ha) | Plant response rating, Redroot pigweed ([10]; PREEMERGENCE, Rate 35 g/ha) | Plant response rating, Redroot pigweed ([10]; PREEMERGENCE, Rate 70 g/ha) | Plant response rating, Redroot pigweed ([10]; PREEMERGENCE, Rate 140 g/ha) | Plant response rating, Fall panicum ([12]; PREEMERGENCE, Rate 140 g/ha) | Plant response rating, Wild poinsettia ([15]; POSTEMERGENCE, Rate 140 g/ha) | Plant response rating, Lambsquarters ([16]; POSTEMERGENCE, Rate 140 g/ha) | Plant response rating, Lambsquarters ([16]; PREEMERGENCE, Rate 70 g/ha) | Plant response rating, Lambsquarters ([16]; PREEMERGENCE, Rate 140 g/ha) | Plant response rating, E. blacknightsh ([17]; POSTEMERGENCE, Rate 35 g/ha) | Plant response rating, E. blacknightsh ([17]; POSTEMERGENCE, Rate 140 g/ha) | Plant response rating, E. blacknightsh ([17]; PREEMERGENCE, Rate 70 g/ha) | Plant response rating, Giant foxtail ([18]; PREEMERGENCE, Rate 70 g/ha) | Plant response rating, Giant foxtail ([18]; PREEMERGENCE, Rate 140 g/ha)
95: Plant response rating, Common ragweed ([13]; PREEMERGENCE, Rate 70 g/ha) | Plant response rating, Lambsquarters ([16]; PREEMERGENCE, Rate 35 g/ha) | Plant response rating, E. blacknightsh ([17]; PREEMERGENCE, Rate 35 g/ha) | Plant response rating, E. blacknightsh ([17]; PREEMERGENCE, Rate 140 g/ha)
90: Plant response rating, Field bindweed ([8]; PREEMERGENCE, Rate 140 g/ha) | Plant response rating, Surinam grass ([9]; PREEMERGENCE, Rate 140 g/ha) | Plant response rating, Fall panicum ([12]; PREEMERGENCE, Rate 70 g/ha) | Plant response rating, Cotton ([14]; POSTEMERGENCE, Rate 140 g/ha) | Plant response rating, Wild poinsettia ([15]; POSTEMERGENCE, Rate 35 g/ha) | Plant response rating, Wild poinsettia ([15]; POSTEMERGENCE, Rate 70 g/ha) | Plant response rating, Giant foxtail ([18]; PREEMERGENCE, Rate 35 g/ha)
30: Plant response rating, Fall panicum ([12]; POSTEMERGENCE, Rate 140 g/ha) | Plant response rating, Common ragweed ([13]; POSTEMERGENCE, Rate 70 g/ha) | Plant response rating, Giant foxtail ([18]; POSTEMERGENCE, Rate 140 g/ha)
15: Plant response rating, Giant foxtail ([18]; POSTEMERGENCE, Rate 35 g/ha) | Plant response rating, Giant foxtail ([18]; POSTEMERGENCE, Rate 70 g/ha)
10: Plant response rating, Common ragweed ([13]; POSTEMERGENCE, Rate 140 g/ha) | Plant response rating, Cotton ([14]; PREEMERGENCE, Rate 35 g/ha) | Plant response rating, Wild poinsettia ([15]; PREEMERGENCE, Rate 35 g/ha)
8: Plant response rating, Barnyardgrass [1, 22] | Plant response rating, Rice [2, 22] | Plant response rating, S. Flatsedge [3, 19] | Wild oats plant response rating ([7]; Rate 125 g/ha, Preemergence) | Plant response rating, Wild oats ([7]; Rate 500 g/ha, Postemergence)
85: Plant response rating, Fall panicum ([12]; PREEMERGENCE, Rate 35 g/ha)
4: Plant response rating, Ducksalad [4, 19] | Plant response rating, Wild oats ([7]; Rate 125 g/ha, Postemergence)
0: Plant response rating, Nutsedge ([6]; Rate 62 g/ha, Postemergence) | Nutsedge plant response rating ([6]; Rate 62 g/ha, Preemergence) | Nutsedge plant response rating ([6]; Rate 125 g/ha, Preemergence) | Plant response rating, Nutsedge ([6]; Rate 250 g/ha, Preemergence) | Plant response rating, Nutsedge ([6]; Rate 500 g/ha, Preemergence)
3: Plant response rating, Nutsedge ([6]; Rate 250 g/ha, Postemergence) | Plant response rating, Nutsedge ([6]; Rate 500 g/ha, Postemergence) | Plant response rating, Wild oats ([7]; Rate 62 g/ha, Postemergence)
